The target in the experiment is Human MGAT-2 (Homo sapiens (Human), UniProt Q3SYC2). Put plainly: MGAT LCMS Assay (human MGAT-2).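 Also: diolein product quantified by LC/MS with positive APCI, expressed as peak area ratio versus an internal standard, and this ratio used to derive IC50.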 In kind it is biochemical. Particulars: human MGAT-2 membranes expressed in Sf9 cells; 2-oleoylglycerol and oleoyl-Coenzyme A; read-out: h-MGAT2 IC50 (nM) LCMS Assay.
Sequence of Human MGAT-2 (Q3SYC2 whole entry): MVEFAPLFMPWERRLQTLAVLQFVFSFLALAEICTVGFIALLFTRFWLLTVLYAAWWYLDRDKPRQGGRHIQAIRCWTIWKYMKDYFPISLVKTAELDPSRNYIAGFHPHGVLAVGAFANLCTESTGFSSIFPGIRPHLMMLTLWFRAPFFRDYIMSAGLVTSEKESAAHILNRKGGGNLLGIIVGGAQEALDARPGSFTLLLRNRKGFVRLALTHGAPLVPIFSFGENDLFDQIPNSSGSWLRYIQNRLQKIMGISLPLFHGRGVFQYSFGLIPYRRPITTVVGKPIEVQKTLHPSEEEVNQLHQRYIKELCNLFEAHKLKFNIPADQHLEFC

Turning to `O=C1NC(c2ccc(OCCCC(F)(F)F)cc2)(C(F)(F)F)CC(c2ccc(OC(F)F)cc2)=C1c1nn[nH]n1` (stereo not drawn) [Example 245], the IC50 (usually the concentration that inhibits the measured activity by half) was 46 nM.

Take `Cc1ccc(C2=C(NC(=O)c3cn(C)nn3)C(=O)NC(c3ccc(OCCCC(F)(F)F)cc3)(C(F)(F)F)C2)cc1` (stereo not drawn) [Example 246]: the IC50 worked out at 36 nM.

As for `COc1ccc(C2=C(c3nn[nH]n3)C(=O)NC(c3ccc(OCCCCCC(F)(F)F)cc3)(C(F)(F)F)C2)cc1` (stereo not drawn) [Example 247], the IC50 was found to be 51 nM.

Regarding `O=C1NC(c2ccc(OCCCCCC(F)(F)F)cc2)(C(F)(F)F)CC(c2ccc(OCC(F)F)cc2)=C1c1nn[nH]n1` (stereo not drawn) [Example 248], the IC50 stood at 8 nM.

Take `Cc1ccc(C2=C(NC(=O)c3ccccc3F)C(=O)NC(c3ccc(OCCCC(F)(F)F)cc3)(C(F)(F)F)C2)cc1` (stereo not drawn) [Example 249]: the IC50 came to 185 nM.

As to `CC(=O)C(=O)NC1=C(c2ccc(C)cc2)CC(c2ccc(OCCCC(F)(F)F)cc2)(C(F)(F)F)NC1=O` (stereo not drawn) [Example 250], the IC50 is 243 nM.

With `CS(=O)(=O)CC(=O)NC1=C(c2ccc(OCC(F)F)cc2)CC(c2ccc(OCCCC(F)(F)F)cc2)(C(F)(F)F)NC1=O` (stereo not drawn) [Example 251], the IC50 amounted to 3 nM.

In the case of `COc1ccc(C2=C(NC(=O)CS(C)(=O)=O)C(=O)NC(c3ccc(OCCCC(F)(F)F)cc3)(C(F)(F)F)C2)cc1` (stereo not drawn) [Example 252], the IC50 was 7 nM.

Regarding `Cc1ccc(C2=C(NC(=O)[C@@H](C)O)C(=O)NC(c3ccc(OCCCC(F)(F)F)cc3)(C(F)(F)F)C2)cc1` (stereo partly drawn) [Example 253], the half-maximal inhibitory concentration (IC50) came out at 411 nM.

With `CCNC(=O)NC1=C(c2ccc(OCC(F)F)cc2)CC(c2ccc(OCCCC(F)(F)F)cc2)(C(F)(F)F)NC1=O` (stereo not drawn) [Example 254], the IC50 amounted to 170 nM.

As to `CCNC(=O)NC1=C(c2ccc(C)cc2)CC(c2ccc(OCCCC(F)(F)F)cc2)(C(F)(F)F)NC1=O` (stereo not drawn) [Example 255], the IC50 is 702 nM.

`Cc1ccc(C2=C(C#N)C(=O)NC(c3ccc(OCCCC(F)(F)F)cc3)(C(F)(F)F)C2)cc1F` (stereo not drawn) [Example 256]: the IC50 is 22 nM.

Regarding `COOCNc1ccc(C2=C(C#N)C(=O)NC(c3ccc(OCCCC(F)(F)F)cc3)(C(F)(F)F)C2)cc1` (stereo not drawn) [Example 257], the IC50 is 421 nM.

Turning to `COc1ccc(C2=C(C#N)C(=O)NC(c3ccc(OCCCC(F)(F)F)cc3)(C(F)(F)F)C2)cc1Cl` (stereo not drawn) [Example 258], the IC50 was 1150 nM.

Turning to `Cc1ccc(C2=C(C#N)C(=O)NC(c3ccc(OCCCC(F)(F)F)cc3)(C(F)(F)F)C2)cc1Cl` (stereo not drawn) [Example 259], the IC50 was 15 nM.

Turning to `COCc1ccc(C2=C(C#N)C(=O)NC(c3ccc(OCCCC(F)(F)F)cc3)(C(F)(F)F)C2)cc1` (stereo not drawn) [Example 260], the IC50 was 56 nM.

With `N#CC1=C(c2ccc(OC(F)(F)F)c(F)c2)CC(c2ccc(OCCCC(F)(F)F)cc2)(C(F)(F)F)NC1=O` (stereo not drawn) [Example 261], the IC50 was 1220 nM.

On to `COc1cc(C2=C(C#N)C(=O)NC(c3ccc(OCCCC(F)(F)F)cc3)(C(F)(F)F)C2)ccc1C` (stereo not drawn) [Example 262], for which the IC50 was determined as 96 nM.

As to `CCOc1ccc(C2=C(C#N)C(=O)NC(c3ccc(OCCCC(F)(F)F)cc3)(C(F)(F)F)C2)cc1Cl` (stereo not drawn) [Example 263], the IC50 came out at 103 nM.

Consider `CCOc1ccc(C2=C(C#N)C(=O)NC(c3ccc(OCCCC(F)(F)F)cc3)(C(F)(F)F)C2)cc1F` (stereo not drawn) [Example 264], for which the IC50 was 46 nM.

Regarding `Cc1ccc(C2=C(c3nn[nH]n3)C(=O)NC(c3cccc(OCCCC(F)(F)F)c3)(C(F)(F)F)C2)cc1` (stereo not drawn) [Example 267], the IC50 was found to be 796 nM.

For the molecule `O=C1NC(c2ccc(OCCCC(F)(F)F)cc2)(C(F)(F)F)CC(c2ccc(CC(F)(F)F)cc2)=C1c1nn[nH]n1` (stereo not drawn) [Example 271], the IC50 was 12 nM.

As to `O=C1NC(c2ccc(OCCCCCC(F)(F)F)cc2F)(C(F)(F)F)CC(c2ccc(OC(F)F)cc2)=C1c1nn[nH]n1` (stereo not drawn) [Example 274], the IC50 was found to be 1 nM.

Regarding `O=C1NC(c2ccc(OCCCC(F)(F)F)cc2)(C(F)(F)F)CC(c2ccc(OC(F)F)cc2)=C1NC(=O)c1ccncc1` (stereo not drawn) [Example 275], the IC50 was found to be 2 nM.

As to `O=C1NC(c2ccc(OCCCCCC(F)(F)F)cc2F)(C(F)(F)F)CC(c2ccc3ccccc3c2)=C1c1nn[nH]n1` (stereo not drawn) [Example 276], the IC50 is 2 nM.

With `O=C1NC(c2ccc(OCCCC(F)(F)F)cc2F)(C(F)(F)F)CC(c2ccc(CC3CC3)cc2)=C1c1nn[nH]n1` (stereo not drawn) [Example 277], the IC50 was found to be 2 nM.

Take `Cc1ccc(C2=C(c3nn[nH]n3)C(=O)NC(c3ccc(OCCCCC(F)(F)F)cc3F)(C(F)(F)F)C2)cc1` (stereo not drawn) [Example 278]: the IC50 worked out at 2 nM.

Turning to `Cc1ccc(C2=C(NC(=O)CS(C)(=O)=O)C(=O)NC(c3ccc(OCc4ccccc4)cc3)(C(F)(F)F)C2)cc1` (stereo not drawn) [Example 279], the IC50 came out at 2 nM.

With `O=C(Nc1cccnc1)C1=C(c2ccc(OC(F)F)cc2)CC(c2ccc(OCCCC(F)(F)F)cc2)(C(F)(F)F)NC1=O` (stereo not drawn) [Example 280], the IC50 was found to be 2 nM.

In the case of `Cc1ccc(C2=C(C(=O)Nc3cc(C)no3)C(=O)NC(c3ccc(OCCCC(F)(F)F)cc3)(C(F)(F)F)C2)cc1` (stereo not drawn) [Example 281], the IC50 is 3 nM.

For `CCOP(=O)(CC(=O)NC1=C(c2ccc(C)cc2)CC(c2ccc(OCCCC(F)(F)F)cc2)(C(F)(F)F)NC1=O)OCC` (stereo not drawn) [Example 282], the IC50 was 3 nM.

Take `CCOc1ccc(C2=C(c3nn[nH]n3)C(=O)NC(c3ccc(OCCCCCC(F)(F)F)cc3F)(C(F)(F)F)C2)cc1` (stereo not drawn) [Example 283]: the IC50 is 3 nM.

Consider `O=C1NC(c2ccc(OCCCCCC(F)(F)F)cc2F)(C(F)(F)F)CC(c2ccc(CC(F)(F)F)cc2)=C1c1nn[nH]n1` (stereo not drawn) [Example 284], for which the half-maximal inhibitory concentration (IC50) came to 4 nM.

Turning to `Cc1ccc(C2=C(c3nn[nH]n3)C(=O)NC(c3ccc(OCCC4CC4)cc3)(C(F)(F)F)C2)cc1` (stereo not drawn) [Example 285], the IC50 was determined as 4 nM.

For `Cc1ccc(C2=C(c3nn[nH]n3)C(=O)NC(c3ccc(OCCCC(F)(F)F)cc3)(C(F)(F)F)C2)c(F)c1` (stereo not drawn) [Example 286], the IC50 is 4 nM.

With `Cc1ccc(C2=C(c3nn[nH]n3)C(=O)NC(c3ccc(OCCCCCC(F)(F)F)c(C)c3)(C(F)(F)F)C2)cc1` (stereo not drawn) [Example 287], the IC50 was 13 nM.

As for `Cc1ccc(C2=C(c3nn[nH]n3)C(=O)NC(c3ccc(OCC4CC(F)(F)C4)cc3)(C(F)(F)F)C2)cc1` (stereo not drawn) [Example 288], the IC50 was 19 nM.

As to `Cc1ccc(C2=C(c3nn[nH]n3)C(=O)NC(c3ccc(C#CCC4CCCCC4)cc3)(C(F)(F)F)C2)cc1` (stereo not drawn) [Example 289], the half-inhibitory concentration (IC50) amounted to 19 nM.

As to `Cc1ccc(C2=C(c3nn[nH]n3)C(=O)NC(c3ccc(C#CCOCc4ccccc4)cc3)(C(F)(F)F)C2)cc1` (stereo not drawn) [Example 290], the IC50 is 56 nM.

Take `Cc1ccc(C2=C(c3nn[nH]n3)C(=O)NC(c3ccc(C#CC4CCCCC4)cc3)(C(F)(F)F)C2)cc1` (stereo not drawn) [Example 291]: the IC50 amounted to 178 nM.

For `CCCCCCCc1cnc(C2(C(F)(F)F)CC(c3ccc(C)cc3)=C(c3nn[nH]n3)C(=O)N2)s1` (stereo not drawn) [Example 292], the IC50 is 304 nM.

Regarding `CCCCCC#CC1(C(F)(F)F)CC(c2ccc(C)cc2)=C(c2nn[nH]n2)C(=O)N1` (stereo not drawn) [Example 293], the IC50 came out at 7 nM.

With `COc1ccc(C2=C(c3nn[nH]n3)C(=O)NC(C#CCCc3ccccc3)(C(F)(F)F)C2)cc1` (stereo not drawn) [Example 294], the IC50 stood at 84 nM.

`COc1ccc(C2=C(c3nn[nH]n3)C(=O)NC(C#CCCC(C)C)(C(F)(F)F)C2)cc1` (stereo not drawn) [Example 295]: the IC50 worked out at 183 nM.

Regarding `COc1ccc(NC(=O)C2=C(c3ccc(C)cc3F)CC(c3ccc(OCCCC(F)(F)F)cc3)(C(F)(F)F)NC2=O)cc1` (stereo not drawn) [Example 296], the IC50 amounted to 2 nM.

As to `Cc1ccc(C2=C(NC(=O)CNS(C)(=O)=O)C(=O)NC(c3ccc(OCCCC(F)(F)F)cc3)(C(F)(F)F)C2)cc1` (stereo not drawn) [Example 297], the IC50 amounted to 639 nM.

Consider `CCCCCCC#CC1(C(F)(F)F)CC(c2ccc(C)cc2)=C(NC(=O)CNS(C)(=O)=O)C(=O)N1` (stereo not drawn) [Example 298], for which the IC50 came to 2 nM.

Regarding `Cc1ccc(C2=C(NC(=O)c3cccnc3)C(=O)NC(c3ccc(OCCCC(F)(F)F)cc3)(C(F)(F)F)C2)cc1` (stereo not drawn) [Example 299], the IC50 was 11 nM.

On to `CCCCCCC#CC1(C(F)(F)F)CC(c2ccc(C)cc2)=C(NC(=O)c2cccnc2)C(=O)N1` (stereo not drawn) [Example 300], for which the IC50 was 11 nM.

Turning to `O=C1NC(c2ccc(OCCCCCC(F)(F)F)c(F)c2)(C(F)(F)F)CC(c2ccc(OC(F)F)cc2)=C1c1nn[nH]n1` (stereo not drawn) [Example 301], the IC50 came out at 19 nM.

Take `CCCOc1ccc(C2(C(F)(F)F)CC(c3ccc(C)cc3)=C(NC(=O)CS(C)(=O)=O)C(=O)N2)cc1` (stereo not drawn) [Example 302]: the IC50 is 105 nM.

For `O=C1NC(c2ccc(OCCCCCC(F)(F)F)c(F)c2)(C(F)(F)F)CC(c2ccc3ccccc3c2)=C1c1nn[nH]n1` (stereo not drawn) [Example 304], the IC50 was found to be 6 nM.

For `CCOc1ccc(C2=C(c3nn[nH]n3)C(=O)NC(c3ccc(OCCCCCC(F)(F)F)c(F)c3)(C(F)(F)F)C2)cc1` (stereo not drawn) [Example 305], the IC50 came to 94 nM.

As for `O=C1NC(c2ccc(OCCCCCC(F)(F)F)c(F)c2)(C(F)(F)F)CC(c2ccc(CC(F)(F)F)cc2)=C1c1nn[nH]n1` (stereo not drawn) [Example 306], the IC50 was 3 nM.

`CCCCCCC#Cc1ccc(C2(C(F)(F)F)CC(c3ccc(OC(F)F)cc3)=C(c3nn[nH]n3)C(=O)N2)cc1F` (stereo not drawn) [Example 307]: the IC50 came out at 3 nM.

On to `CCCCCCC#Cc1ccc(C2(C(F)(F)F)CC(c3ccc(OCC)cc3)=C(c3nn[nH]n3)C(=O)N2)cc1F` (stereo not drawn) [Example 308], for which the IC50 came out at 61 nM.

Regarding `O=C1NC(c2ccc(OCCCCCC(F)(F)F)c(F)c2)(C(F)(F)F)CC(c2ccc3ccccc3c2)=C1c1nn[nH]n1` (stereo not drawn) [Example 309], the IC50 stood at 1 nM.

Turning to `Cc1ccc(C2=C(NC(=O)c3nnn[nH]3)C(=O)NC(c3ccc(OCCCC(F)(F)F)cc3)(C(F)(F)F)C2)cc1` (stereo not drawn) [Example 310], the IC50 was 4 nM.

Regarding `CCCCCCCC#CC1(C(F)(F)F)CC(c2ccc(C)cc2)=C(NC(=O)c2nnn[nH]2)C(=O)N1` (stereo not drawn) [Example 311], the IC50 worked out at 3 nM.

`CCCCCCCC#CC1(C(F)(F)F)CC(c2ccc(OC(F)F)cc2)=C(NC(=O)CS(C)(=O)=O)C(=O)N1` (stereo not drawn) [Example 313]: the IC50 amounted to 4 nM.
